Measured values published in patent publication US9617267B2, “Compounds and methods for kinase modulation, and indications therefor” (Plexxikon Inc., priority 2009, dated 2017).
Where two headings read alike, the source gives them in different places.

Tests used:
CYP1A2 = CYP1A2 (Homo sapiens (Human), UniProt P05177); assay: CYP enzyme inhibition, fluorescent substrate (CEC)
Method: (§1) CYP (Cytochrome P450) enzymes are the major drug metabolizing enzymes present in the liver. The inhibition of CYP enzyme activity (IC50) for each of CYP1A2, CYP2C19, CYP2C9, CYP2D6, CYP3A4(BFC) and CYP3A4(BQ) is determined for compounds, where inhibition of metabolism of a known substrate leads to a decrease in the fluorescence of the metabolized product. The fluorescence of the product is monitored as a function of compound concentration.
(§2) Compounds are dissolved in dimethyl sulfoxide to a concentration of 100 mM. These are diluted 1 μL into 82 μL of acetonitrile. An 11 μL aliquot of this solution is then added to 204 μL of cofactor mix (1.3% NADPH Regeneration system Solution A, 1.04% NADPH Regeneration system Solution B from BD Biosciences, 5% acetonitrile and 0.05% dimethyl sulfoxide). These are then serially diluted 1:1 (160 μL to 160 μL co-factor mix) for a total of 10 points. A 10 μL aliquot of this final mixture is dispensed into 384 well assay plates and incubated for 10 minutes at 37° C. Enzyme and substrate mix (10 μL; 0.5 pmol CYP1A2/5 μM CEC; 1.0 pmol CYP2C9/75 μM MFC; 0.5 pmol CYP2C19/25 μM CEC; 1.5 pmol CYP2D6/1.5 μM AMMC; 1.0 pmol CYP3A4/50 μM BFC; or 1.0 pmol CYP3A4/40 μM BQ) is added to these assay plates. Assay plates are incubated at 37° C. (CYP1A2-15 min; CYP2C9-45 min; CYP2C19, 2D6 and 3A4-30 min) and read in a Tecan Safire 2 plate reader (CYP1A2, 2C19 and 3A4 409 ex/460 em; CYP2C9 and 2D6 409 ex/530 em). The signal versus compound concentration is used to determine the IC50. The enzymes and substrates for this assay are obtained from BD Biosciences.

B-Raf V600E = B-Raf V600E (Homo sapiens (Human), UniProt P15056, V600E); assay: B-Raf V600E kinase activity biochemical assay (AlphaScreen, biotin-MEK1 phosphorylation); conditions: for IC50: B-Raf V600E; for Biochemical activity ratio V600E/C: ratio of IC50 B-Raf V600E / c-Raf-1
Sequence of B-Raf V600E (P15056 whole entry V600E): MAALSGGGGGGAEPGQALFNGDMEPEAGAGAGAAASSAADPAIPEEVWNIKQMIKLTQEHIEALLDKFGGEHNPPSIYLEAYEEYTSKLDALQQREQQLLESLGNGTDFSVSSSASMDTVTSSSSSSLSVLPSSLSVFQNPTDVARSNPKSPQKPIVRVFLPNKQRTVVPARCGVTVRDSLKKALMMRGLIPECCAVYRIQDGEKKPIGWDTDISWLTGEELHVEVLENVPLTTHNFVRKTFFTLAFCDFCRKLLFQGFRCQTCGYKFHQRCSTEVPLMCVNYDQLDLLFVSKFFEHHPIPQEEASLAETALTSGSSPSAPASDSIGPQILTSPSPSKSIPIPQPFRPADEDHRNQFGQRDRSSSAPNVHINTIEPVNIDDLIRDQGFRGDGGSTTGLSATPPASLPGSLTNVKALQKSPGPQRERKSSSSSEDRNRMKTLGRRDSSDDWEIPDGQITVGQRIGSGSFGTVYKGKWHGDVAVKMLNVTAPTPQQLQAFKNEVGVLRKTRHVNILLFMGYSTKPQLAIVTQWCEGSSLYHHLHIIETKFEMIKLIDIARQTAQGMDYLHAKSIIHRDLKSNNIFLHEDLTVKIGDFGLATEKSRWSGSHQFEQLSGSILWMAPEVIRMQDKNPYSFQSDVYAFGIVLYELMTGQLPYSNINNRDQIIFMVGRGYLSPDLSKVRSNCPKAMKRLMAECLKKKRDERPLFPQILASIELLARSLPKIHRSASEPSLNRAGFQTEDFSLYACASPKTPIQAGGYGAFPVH
How it was run: (§3)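 Biotin-MEK1 phosphorylation measured after 45 min kinase reaction at RT with 100 μM ATP final; compounds tested at 8 points from 0.1 mM DMSO stock.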

B-Raf [1] = assay: B-Raf kinase activity biochemical assay (AlphaScreen, biotin-MEK1 phosphorylation); conditions: for Biochemical activity ratio B/V600E: ratio of IC50 B-Raf / B-Raf V600E; for Biochemical activity ratio B/C: ratio of IC50 B-Raf / c-Raf-1
How it was run: as §3

B-Raf [2] = molecular target: B-Raf (Homo sapiens (Human), UniProt P15056); assay: as above; conditions: B-Raf
Sequence of B-Raf (Homo sapiens (Human), UniProt P15056) (P15056 whole entry): as the sequence (P15056 whole entry V600E) above, with E600V counted along it
How it was run: as §3

CYP3A4(BFC) = CYP3A4(BFC) (Homo sapiens (Human), UniProt P08684); assay: CYP enzyme inhibition, fluorescent substrate BFC
Sequence of CYP3A4(BFC) (P08684 whole entry): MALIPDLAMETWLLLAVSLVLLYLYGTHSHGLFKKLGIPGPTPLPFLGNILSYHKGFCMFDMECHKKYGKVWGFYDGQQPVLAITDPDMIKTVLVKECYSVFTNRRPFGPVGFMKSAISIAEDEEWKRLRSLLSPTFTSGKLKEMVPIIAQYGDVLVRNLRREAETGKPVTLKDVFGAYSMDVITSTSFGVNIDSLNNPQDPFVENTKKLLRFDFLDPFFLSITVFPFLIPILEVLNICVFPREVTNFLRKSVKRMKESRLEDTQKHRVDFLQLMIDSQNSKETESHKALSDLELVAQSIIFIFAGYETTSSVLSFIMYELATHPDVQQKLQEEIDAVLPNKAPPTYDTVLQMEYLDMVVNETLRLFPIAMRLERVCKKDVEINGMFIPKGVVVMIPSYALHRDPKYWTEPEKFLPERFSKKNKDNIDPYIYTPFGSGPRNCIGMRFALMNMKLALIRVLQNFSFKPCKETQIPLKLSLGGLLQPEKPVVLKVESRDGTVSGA
Method: as §1
(§4) Compounds are dissolved in dimethyl sulfoxide to a concentration of 100 mM. These are diluted 1 μL into 82 μL of acetonitrile. […] These are then serially diluted 1:1 (160 μL to 160 μL co-factor mix) for a total of 10 points. A 10 μL aliquot of this final mixture is dispensed into 384 well assay plates and incubated for 10 minutes at 37° C. […] Assay plates are incubated at 37° C. […] The signal versus compound concentration is used to determine the IC50. The enzymes and substrates for this assay are obtained from BD Biosciences.

CYP2C19 = CYP2C19 (Homo sapiens (Human), UniProt P33261); assay: CYP enzyme inhibition, fluorescent substrate (CEC)
Sequence of CYP2C19 (P33261 whole entry): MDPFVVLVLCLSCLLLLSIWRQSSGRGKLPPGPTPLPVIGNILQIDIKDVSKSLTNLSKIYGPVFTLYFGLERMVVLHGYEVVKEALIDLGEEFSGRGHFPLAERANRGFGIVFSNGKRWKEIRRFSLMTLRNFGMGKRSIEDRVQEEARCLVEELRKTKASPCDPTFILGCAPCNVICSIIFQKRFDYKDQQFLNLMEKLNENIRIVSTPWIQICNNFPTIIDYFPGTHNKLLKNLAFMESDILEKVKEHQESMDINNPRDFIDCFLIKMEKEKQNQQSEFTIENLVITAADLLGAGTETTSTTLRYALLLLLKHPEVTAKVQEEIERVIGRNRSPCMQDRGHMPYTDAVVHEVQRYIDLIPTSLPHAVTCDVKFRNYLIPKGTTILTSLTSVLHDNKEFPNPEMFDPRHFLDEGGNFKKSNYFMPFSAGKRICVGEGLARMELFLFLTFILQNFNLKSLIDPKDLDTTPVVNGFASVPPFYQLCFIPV
How it was run: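 IC50 values come from plotting product fluorescence against compound concentration; inhibition lowers formation of the fluorescent metabolite. Ten-point twofold dilutions in co-factor mix were held 10 minutes at 37 °C before the enzyme reaction, also run at 37 °C.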

[3] = Relative solubility by turbidity threshold concentration in aqueous buffers (pH 1.5, 4.5, 6.8, 7.4); type: physicochemical; conditions: for turbidity threshold (L, M, H) 1.4: pH 1.4 [sic] (method: SGF pH 1.5); for turbidity threshold (L, M, H) 4.5: pH 4.5 (SIF); for turbidity threshold (L, M, H) 6.8: pH 6.8 (SIF); for turbidity threshold (L, M, H) 7.4: pH 7.4 (HEPES)
How it was run: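 Solubility class (high >250 μM, moderate 31.3–250 μM, low <31.3 μM) comes from the concentration where absorbance reaches a 0.01 threshold, averaged across 490/535/650 nm. Samples were compound dilutions from DMSO stock, 1 μL into 99 μL buffer at pH 1.5, 4.5, 6.8 or 7.4.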

c-Raf-1 = c-Raf-1 (Homo sapiens, UniProt P04049); assay: c-Raf-1 kinase activity biochemical assay (AlphaScreen, biotin-MEK1 phosphorylation)
Sequence of c-Raf-1 (P04049 whole entry, looked up): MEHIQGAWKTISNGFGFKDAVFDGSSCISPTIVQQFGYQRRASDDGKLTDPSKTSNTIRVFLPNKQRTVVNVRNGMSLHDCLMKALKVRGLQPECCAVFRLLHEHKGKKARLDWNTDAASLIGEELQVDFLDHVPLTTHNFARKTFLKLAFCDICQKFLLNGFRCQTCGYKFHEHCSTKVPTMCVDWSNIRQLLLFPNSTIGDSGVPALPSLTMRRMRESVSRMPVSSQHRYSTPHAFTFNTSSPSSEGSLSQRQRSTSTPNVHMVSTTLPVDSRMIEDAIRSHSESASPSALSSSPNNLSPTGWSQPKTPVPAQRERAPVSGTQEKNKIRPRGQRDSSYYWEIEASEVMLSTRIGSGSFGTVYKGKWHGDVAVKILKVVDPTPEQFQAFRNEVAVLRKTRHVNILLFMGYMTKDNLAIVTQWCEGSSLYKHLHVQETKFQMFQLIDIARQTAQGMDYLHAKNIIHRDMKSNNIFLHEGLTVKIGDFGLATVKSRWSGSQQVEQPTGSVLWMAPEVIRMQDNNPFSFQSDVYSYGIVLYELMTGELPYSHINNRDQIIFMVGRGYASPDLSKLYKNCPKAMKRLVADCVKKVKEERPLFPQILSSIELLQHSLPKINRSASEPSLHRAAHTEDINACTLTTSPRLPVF
How it was run: as §3

CYP2D6 = CYP2D6 (Homo sapiens (Human), UniProt P10635); assay: CYP enzyme inhibition, fluorescent substrate (AMMC); type: in vitro ADME; conditions: read-out: Cyp IC50 2D6
Sequence of CYP2D6 (P10635 whole entry): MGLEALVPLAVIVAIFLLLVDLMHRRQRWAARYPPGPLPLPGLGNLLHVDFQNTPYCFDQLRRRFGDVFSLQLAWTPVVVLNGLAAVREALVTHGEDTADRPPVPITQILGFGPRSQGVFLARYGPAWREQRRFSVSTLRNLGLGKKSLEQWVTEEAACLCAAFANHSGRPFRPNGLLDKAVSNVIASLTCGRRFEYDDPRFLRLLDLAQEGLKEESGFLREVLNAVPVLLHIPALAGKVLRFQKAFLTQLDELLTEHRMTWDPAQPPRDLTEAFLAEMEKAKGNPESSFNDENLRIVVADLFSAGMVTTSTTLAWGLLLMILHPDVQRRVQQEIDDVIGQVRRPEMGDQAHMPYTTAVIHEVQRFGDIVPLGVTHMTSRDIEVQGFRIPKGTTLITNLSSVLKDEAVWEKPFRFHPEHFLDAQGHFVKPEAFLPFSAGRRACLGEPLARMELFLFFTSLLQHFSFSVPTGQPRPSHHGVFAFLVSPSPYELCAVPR
Method: as §1, §2

CYP2C9 = CYP2C9 (Homo sapiens (Human), UniProt P11712); assay: CYP enzyme inhibition, fluorescent substrate (MFC)
Sequence of CYP2C9 (P11712 whole entry): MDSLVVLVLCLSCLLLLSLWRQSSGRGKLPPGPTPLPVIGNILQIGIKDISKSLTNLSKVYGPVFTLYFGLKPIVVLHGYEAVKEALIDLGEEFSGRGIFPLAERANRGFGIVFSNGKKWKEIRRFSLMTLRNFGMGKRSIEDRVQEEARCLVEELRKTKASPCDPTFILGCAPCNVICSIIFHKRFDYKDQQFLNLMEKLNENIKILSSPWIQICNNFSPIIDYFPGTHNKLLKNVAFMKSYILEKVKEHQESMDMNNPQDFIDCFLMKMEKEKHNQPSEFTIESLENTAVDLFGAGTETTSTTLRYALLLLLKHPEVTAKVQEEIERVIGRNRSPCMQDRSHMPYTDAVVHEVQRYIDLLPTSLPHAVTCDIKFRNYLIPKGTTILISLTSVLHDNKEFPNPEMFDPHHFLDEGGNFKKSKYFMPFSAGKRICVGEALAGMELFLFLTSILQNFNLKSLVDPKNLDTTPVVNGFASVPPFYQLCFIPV
Method: as §1, §4

[4] = read-out: Cyp IC50 3A4(BFC), CYP3A4, substrate BFC
[5] = read-out: Cyp IC50 2C9, CYP2C9, substrate MFC
[6] = read-out: Cyp IC50 2C19, CYP2C19, substrate CEC

Sequence of CYP1A2 (P05177 whole entry): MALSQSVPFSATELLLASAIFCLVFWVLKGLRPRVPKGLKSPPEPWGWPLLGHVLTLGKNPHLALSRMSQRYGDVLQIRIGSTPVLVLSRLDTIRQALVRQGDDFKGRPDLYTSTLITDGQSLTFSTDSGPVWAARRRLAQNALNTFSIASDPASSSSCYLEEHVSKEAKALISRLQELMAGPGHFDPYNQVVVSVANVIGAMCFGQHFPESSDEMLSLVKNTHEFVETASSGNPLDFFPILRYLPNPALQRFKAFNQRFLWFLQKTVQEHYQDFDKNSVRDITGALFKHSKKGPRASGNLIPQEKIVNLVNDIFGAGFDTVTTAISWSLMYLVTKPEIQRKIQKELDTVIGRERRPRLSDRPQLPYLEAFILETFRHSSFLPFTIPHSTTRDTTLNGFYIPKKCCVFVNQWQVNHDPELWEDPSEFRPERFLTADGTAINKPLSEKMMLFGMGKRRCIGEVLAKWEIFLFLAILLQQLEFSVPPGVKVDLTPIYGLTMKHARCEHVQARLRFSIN

Row | SMILES | IC50 (CYP1A2; human, 15 min) | IC50 (B-Raf V600E) | Biochemical activity ratio V600E/C (B-Raf V600E) | Biochemical activity ratio B/V600E (B-Raf [1]) | Biochemical activity ratio B/C (B-Raf [1]) | IC50 (B-Raf [2]) | IC50 (CYP3A4(BFC); [4]) | IC50 (CYP2C19) | turbidity threshold (L, M, H) 1.4 [3] | turbidity threshold (L, M, H) 4.5 [3] | turbidity threshold (L, M, H) 6.8 [3] | turbidity threshold (L, M, H) 7.4 [3] | IC50 (c-Raf-1) | IC50 (CYP2D6) | IC50 (CYP2C9; [5]) | IC50 (CYP3A4(BFC)) | IC50 (CYP1A2; read-out: Cyp IC50 1A2, CYP1A2, substrate CEC) | IC50 (CYP2C9) | IC50 (CYP2C19; [6])
1 | CCNc1ncnc2[nH]cc(C(=O)c3c(F)ccc(NS(=O)(=O)c4ccc(C(F)(F)F)cc4)c3F)c12 [P-1024, N-[3-(4-Ethylamino-7H-pyrrolo[2,3-d]pyrimidine-5-carbonyl)-2,4-difluoro-phenyl]-4-trifluoromethyl-benzenesulfonamide] | > 10 µM | > 0.1 µM | >10 | 0.1-10 | >10 | < 0.1 µM | > 10 µM | 5 to 10 µM | M (moderate solubility if the threshold concentration is 31.3 μM to 250 μM) | L (low solubility if the threshold concentration is <31.3 μM) | L (low solubility if the threshold concentration is <31.3 μM) | L (low solubility if the threshold concentration is <31.3 μM) | < 0.1 µM | > 10 µM | > 10 µM | – | – | – | –
2 | CCCc1ccc(S(=O)(=O)Nc2ccc(F)c(C(=O)c3c[nH]c4ncnc(Cl)c34)c2F)cc1 [P-1034, N-[3-(4-Chloro-7H-pyrrolo[2,3-d]pyrimidine-5-carbonyl)-2,4-difluoro-phenyl]-4-propyl-benzenesulfonamide] | > 10 µM | > 0.1 µM | >10 | 0.1-10 | 0.1-10 | > 0.1 µM | – | 5 to 10 µM | M (moderate solubility if the threshold concentration is 31.3 μM to 250 μM) | M (moderate solubility if the threshold concentration is 31.3 μM to 250 μM) | M (moderate solubility if the threshold concentration is 31.3 μM to 250 μM) | M (moderate solubility if the threshold concentration is 31.3 μM to 250 μM) | < 0.1 µM | > 10 µM | > 10 µM | 5 to 10 µM | – | – | –
3 | CC(C)c1ncnc2[nH]cc(C(=O)c3c(F)ccc(NS(=O)(=O)c4ccc(C(F)(F)F)cc4)c3F)c12 [P-1029, N-[2,4-Difluoro-3-(4-isopropyl-7H-pyrrolo[2,3-d]pyrimidine-5-carbonyl)-phenyl]-4-trifluoromethyl-benzenesulfonamide] | – | > 0.1 µM | >10 | 0.1-10 | >10 | < 0.1 µM | > 10 µM | 5 to 10 µM | M (moderate solubility if the threshold concentration is 31.3 μM to 250 μM) | – | – | M (moderate solubility if the threshold concentration is 31.3 μM to 250 μM) | < 0.1 µM | > 10 µM | – | – | > 10 µM | 5 to 10 µM | –
4 | CC(C)CNc1ncnc2[nH]cc(C(=O)c3c(F)ccc(NS(=O)(=O)c4ccc(C(F)(F)F)cc4)c3F)c12 [P-1020, N-[2,4-Difluoro-3-(4-isobutylamino-7H-pyrrolo[2,3-d]pyrimidine-5-carbonyl)-phenyl]-4-trifluoromethyl-benzenesulfonamide] | > 10 µM | > 0.1 µM | >10 | 0.1-10 | >10 | < 0.1 µM | > 10 µM | – | H (high solubility if the threshold concentration is >250 μm) | – | – | H (high solubility if the threshold concentration is >250 μm) | < 0.1 µM | > 10 µM | > 10 µM | – | – | – | > 10 µM
5 | CNc1ncnc2[nH]cc(C(=O)c3c(F)ccc(NS(=O)(=O)c4ccc(C(F)(F)F)cc4)c3F)c12 [P-1026, N-[2,4-Difluoro-3-(4-methylamino-7H-pyrrolo[2,3-d]pyrimidine-5-carbonyl)-phenyl]-4-trifluoromethyl-benzenesulfonamide] | > 10 µM | > 0.1 µM | >10 | 0.1-10 | >10 | > 0.1 µM | > 10 µM | – | – | – | M (moderate solubility if the threshold concentration is 31.3 μM to 250 μM) | M (moderate solubility if the threshold concentration is 31.3 μM to 250 μM) | < 0.1 µM | > 10 µM | > 10 µM | – | – | – | > 10 µM
6 | CC(C)Nc1ncnc2[nH]cc(C(=O)c3c(F)ccc(NS(=O)(=O)c4ccc(C(F)(F)F)cc4)c3F)c12 [P-1039, N-[2,4-Difluoro-3-(4-isopropylamino-7H-pyrrolo[2,3-d]pyrimidine-5-carbonyl)-phenyl]-4-trifluoromethyl-benzenesulfonamide] | > 10 µM | < 0.1 µM | >10 | 0.1-10 | >10 | < 0.1 µM | – | – | M (moderate solubility if the threshold concentration is 31.3 μM to 250 μM) | M (moderate solubility if the threshold concentration is 31.3 μM to 250 μM) | M (moderate solubility if the threshold concentration is 31.3 μM to 250 μM) | M (moderate solubility if the threshold concentration is 31.3 μM to 250 μM) | < 0.1 µM | > 10 µM | > 10 µM | 5 to 10 µM | – | – | > 10 µM
